According to patent US20150133493A1, “COUMARIN-BASED COMPOUNDS FOR THE TREATMENT OF ALZHEIMER'S DISEASE AND CANCER” (Sloan-Kettering Institute for Cancer Research, priority 2008, published 2015):
Entries after “also recorded” stand apart in the source; their conditions may differ.

Biological target: T1, γ-secretase active site (Homo sapiens, UniProt P49768)
T1 construct: endogenous in cells; host or cells: HeLa membrane
Experiment: Photolabeling of the γ-secretase active site (PS1-NTF) in HeLa membrane with probes L646, GY4, JC8, L505
Assay type: binding
Conditions: L458 and Compound E at 2 μM, CS-1 up to 100 μM
Protocol: FIG. 4. Kinetic analysis of allosteric GSIs and evaluation of their effect on the γ-secretase active site architecture. (a) Kinetic analysis of CS1 was performed using our modified version of a previously reported in vitro γ-secretase activity assay. The inhibition kinetics were analyzed by using a non-linear curve fit with the Michaelis-Menten equation. Upper right inset: we replotted slopes against the inhibitor concentrations after performing double reciprocal conversion. (b) Schematic representation of the allosteric binding of the di-coumarin compounds to γ-secretase. This binding ultimately causes an alteration at the active site of γ-secretase. Black rectangle represents the coumarin-dimer compound. (c) The binding of L458 to the active site of γ-secretase and its interaction at various subpockets within the enzyme. (d) Chemical structure of the four photoaffinity probes utilized in the characterization of CS-1 effect on active site architecture. Hydroxyethylamine and benzophenone moieties are marked by blue and red, respectively. (e) Evaluation of CS-1 effect on the photolabeling of four probes. […] (f) Evaluation of CS-2 effect on the active site photolabeling by L505 and GY4. (g) Effect of Compound E on active site photolabling. […] Blotting was performed for PS1-NTF. The photolabeling blots are representative and were performed in triplicate.
We hypothesized that the allosteric binding of the di-coumarin compounds alters the conformation of the active site of γ-secretase and thereby preferentially affects the Aβ42 site cleavage (FIG. 4b). This raised the technical issue of how to probe the contours of the enzymatic active site. Although the structure of γ-secretase has been determined by cryoelectron microscopy (23), the resolution attained is not sufficient to investigate subtle changes within the active site. Consequently, we developed a series of active-site directed inhibitors that incorporate a photoreactive benzophenone entity into varied positions. Using these photoreactive probes, we assessed the effect of the di-coumarin inhibitor binding on the active site of γ-secretase. Since the efficiency of photoinsertion depends on the orientation of the probe and the proximity of residues within the active site, conformational change of the active site can alter the orientation of the probe and contact residues and lead to altered cross-linking efficiencies. Therefore, multiple photoactivatable, active-site directed GSIs will provide a practical approach to evaluate the changes within the active site following allosteric di-coumarin binding.
L458 contains a hydroxyethylamine transition-state isostere that mimics the tetrahedral intermediate of aspartyl proteases and this moiety hydrogen bonds with the catalytic aspartate residues of γ-secretase (20). According to the nomenclature of Schechter and Berger (24), L458 contains the P2, P1, P1′, P2′ and P3′ residues that putatively bind to the S2, S1, S1′, S2′ and S3′ subsites, respectively, within the active site of γ-secretase (FIG. 4c). We have developed a series of biotinylated, photoactivatable inhibitors based on the core structure of L458 that allow us to probe the sub-pockets of the γ-secretase active site (3, 25-26). These inhibitors all have an individual benzophenone group incorporated into L458 at either the P2, P1, P1′, or P3′ position and are referred to as L646, GY4, JC8 and L505 (FIG. 4d). Each of these inhibitors interacts and labels the S2, S1, S1′, and S3′ subsites, respectively, within the γ-secretase complex (FIG. 4c-d).
HeLa membrane was incubated with CHAPSO detergent and photoaffinity probe in the presence or absence of excess L458 or CS-1. Labeled presenilin was isolated using streptavidin beads, separated by SDS-PAGE and subsequently western blotted using anti-PS1-NTF antibodies. Again, presenilin is believed to contain the active site of γ-secretase, therefore we examined PS1 photolabeling. […]

C[C@H](NC(=O)Cc1cc(F)cc(F)c1)C(=O)N[C@H]1N=C(c2ccccc2)c2ccccc2N(C)C1=O [Compound E] was tested, and the “effect on JC-8 photolabeling of PS1-NTF (S1′ subsite)” value was “completely suppressed; also recorded: nonselectively blocked”, the “effect on L646 photolabeling of PS1-NTF (S2 subsite)” value was “completely suppressed; also recorded: nonselectively blocked” and the “effect on GY-4 photolabeling of PS1-NTF (S1 subsite)” value (CS-2 at 100 μM) was “completely suppressed; also recorded: nonselectively blocked”. For the same molecule, the “effect on L505 photolabeling of PS1-NTF (S3′ subsite)” value (CS-2 at 100 μM) was “completely suppressed; also recorded: nonselectively blocked”.
